{
  "source": "paper PMC9578396",
  "about": "“Intrinsic Antibacterial Activity of Xeruborbactam In Vitro: Assessing Spectrum and Mode of Action” (Antimicrobial Agents and Chemotherapy, 2022)",
  "test_system": "Klebsiella pneumoniae",
  "experiment": "microbe, parasite or virus in culture",
  "assay_type": "cell-based",
  "settings": "for MIC50 / MIC90 / MIC: Klebsiella pneumoniae; for MIC90: read-out: MIC90",
  "summary_of_the_method": "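MICs by CLSI broth microdilution in in-house panels. Strains tested were engineered strains carrying porin and efflux mutation combinations, KPC-producing clinical isolates and derivatives cured of KPC plasmids, and KPC-producing clinical isolates enriched for porin mutations.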",
  "key": {"[1]": {"settings": "KPC-producing clinical strains with nonfunctional OmpK36, alone"}, "[2]": {"settings": "KPC-producing clinical strains, all strains (n = 141), alone"}},
  "note": "“And” between values parts separate entries of the source, which are not always exact repeats. Equal values may be shown once. Read-outs that look alike come from different tables or passages of the source.",
  "data": [
    {"smiles": "O=C(O)c1c(F)ccc2c1OB(O)[C@@H]1C[C@H]21", "note": "[Xeruborbactam]", "values": [
      {"measurement": "MIC50", "setting": "[1]", "result": "> 16", "unit": "µg/mL"},
      {"measurement": "MIC90", "setting": "[1]", "result": "> 16", "unit": "µg/mL"},
      {"measurement": "MIC50", "setting": "[2]", "result": "> 16", "unit": "µg/mL"},
      {"measurement": "MIC90", "setting": "[2]", "result": "> 16", "unit": "µg/mL"},
      {"measurement": "MIC", "setting": "KPM1026a (no beta-lactamase), xeruborbactam 0 µg/ml, read-out: MIC", "result": 16, "unit": "µg/mL"},
      {"measurement": "MIC", "setting": "KPM1026a, alone, read-out: MIC", "result": 16, "unit": "µg/mL"},
      {"measurement": "MIC", "setting": "KPM1026a, parent, read-out: MIC", "result": 16, "unit": "µg/mL"},
      {"measurement": "MIC", "setting": "KPM1211 (KP1074 after loss of pKpQIL), read-out: MIC", "result": "16 to 32", "unit": "µg/mL"},
      {"measurement": "MIC", "setting": "KPM1271 (KPC-3; wild type), alone, read-out: MIC", "result": 16, "unit": "µg/mL"},
      {"measurement": "MIC", "setting": "KPM1271 (KPM1026a/KPC-3), alone, read-out: MIC", "result": 16, "unit": "µg/mL"},
      {"measurement": "MIC", "setting": "KPM1272 (KPC-3; ramR_fs), alone, read-out: MIC", "result": 16, "unit": "µg/mL"},
      {"measurement": "MIC", "setting": "KPM1273 (KPC-3; ramR_fs ompK36_1171), alone, read-out: MIC", "result": 64, "unit": "µg/mL"},
      {"measurement": "MIC", "setting": "KPM1281 (KPM1026a/NDM-1), alone, read-out: MIC", "result": 16, "unit": "µg/mL"},
      {"measurement": "MIC", "setting": "KPM2067 (KPC-3; ompK36_fs), alone, read-out: MIC", "result": 16, "unit": "µg/mL"},
      {"measurement": "MIC", "setting": "KPM2601 (KPC-3; ΔompK35), alone", "result": 16, "unit": "µg/mL"},
      {"measurement": "MIC", "setting": "KPM2631 (KPC-3; ompK36_fs ΔompK35), alone", "result": 32, "unit": "µg/mL"},
      {"measurement": "MIC", "setting": "KPM3532 (TolQ::M189K), alone", "result": 32, "unit": "µg/mL"},
      {"measurement": "MIC", "setting": "KPM3532, TolQ::M189K", "result": 32, "unit": "µg/mL"},
      {"measurement": "MIC", "setting": "KPM3534 (TolQ::S31F), alone", "result": 32, "unit": "µg/mL"},
      {"measurement": "MIC", "setting": "KPM3534, TolQ::S31F", "result": 32, "unit": "µg/mL"},
      {"measurement": "MIC", "setting": "KPM4127 (KPM3532 TolQ::M189K/KPC-3), alone", "result": 32, "unit": "µg/mL"},
      {"measurement": "MIC", "setting": "KPM4128 (KPM3534 TolQ::S31F/KPC-3), alone", "result": 32, "unit": "µg/mL"},
      {"measurement": "MIC", "setting": "KPM4129 (KPM3532 TolQ::M189K/NDM-1), alone", "result": 32, "unit": "µg/mL"},
      {"measurement": "MIC", "setting": "KPM4130 (KPM3534 TolQ::S31F/NDM-1), alone", "result": 32, "unit": "µg/mL"},
      {"measurement": "MIC", "setting": "KPM4235, TolQ::IP(183–1844)PR", "result": 32, "unit": "µg/mL"},
      {"measurement": "MIC", "setting": "KPM4236, TolQ::TAA at aa 103", "result": 32, "unit": "µg/mL"},
      {"measurement": "MIC", "setting": "KPM4238, TolQ::S25F", "result": 32, "unit": "µg/mL"},
      {"measurement": "MIC", "setting": "KPM4239, TolQ::S28F", "result": 32, "unit": "µg/mL"},
      {"measurement": "MIC", "setting": "KPM4240, TolQ::S25Y", "result": 32, "unit": "µg/mL"},
      {"measurement": "MIC", "setting": "Klebsiella pneumoniae isolates, read-out: highest MIC observed", "result": 64, "unit": "µg/mL"},
      {"measurement": "MIC", "setting": "clinical isolate KP1004, OmpK35 NF, OmpK36 FN, read-out: MIC", "result": 16, "unit": "µg/mL"},
      {"measurement": "MIC", "setting": "clinical isolate KP1070, OmpK35 NF, OmpK36 FN, read-out: MIC", "result": 8, "unit": "µg/mL"},
      {"measurement": "MIC", "setting": "clinical isolate KP1074, OmpK35 NF, OmpK36 PFN (GD), read-out: MIC", "result": 32, "unit": "µg/mL"},
      {"measurement": "MIC", "setting": "clinical isolate KP1093, OmpK35 NF, OmpK36 PFN (GD), read-out: MIC", "result": 32, "unit": "µg/mL"},
      {"measurement": "MIC", "setting": "clinical isolate KP1251, OmpK35 NF, OmpK36 FN, read-out: MIC", "result": 16, "unit": "µg/mL"},
      {"measurement": "MIC", "setting": "clinical isolate KP1274, OmpK35 FN, OmpK36 FN, read-out: MIC", "result": 8, "unit": "µg/mL"},
      {"measurement": "MIC", "setting": "clinical isolate KP1463, OmpK35 NF, OmpK36 NF, read-out: MIC", "result": 64, "unit": "µg/mL"},
      {"measurement": "MIC", "setting": "clinical isolate KP1469, OmpK35 NF, OmpK36 NF, read-out: MIC", "result": 64, "unit": "µg/mL"},
      {"measurement": "MIC", "setting": "clinical isolate KP1598, OmpK35 NF, OmpK36 PFN (GD), read-out: MIC", "result": 64, "unit": "µg/mL"},
      {"measurement": "MIC", "setting": "strain KPM1026a measured at 30°C (Fig. 6), read-out: MIC", "result": 32, "unit": "µg/mL"},
      {"measurement": "MIC", "setting": "strain KPM1026a, wild type, read-out: MIC", "result": 16, "unit": "µg/mL"},
      {"measurement": "MIC", "setting": "strain KPM1026a, read-out: MIC", "result": 16, "unit": "µg/mL"},
      {"measurement": "MIC", "setting": "strain KPM1027, ramR, read-out: MIC", "result": 16, "unit": "µg/mL"},
      {"measurement": "MIC", "setting": "strain KPM1171, lacks porins and overexpresses AcrAB", "result": 64, "unit": "µg/mL"},
      {"measurement": "MIC", "setting": "strain KPM1171, ramR ompK36_1171, read-out: MIC", "result": 64, "unit": "µg/mL"},
      {"measurement": "MIC", "setting": "strain KPM2040, ompK36_2040, read-out: MIC", "result": 16, "unit": "µg/mL"},
      {"measurement": "MIC", "setting": "strain KPM2600, ΔompK35", "result": 16, "unit": "µg/mL"},
      {"measurement": "MIC", "setting": "strain KPM2613, ΔompK35 ompK36_2040", "result": 32, "unit": "µg/mL"},
      {"measurement": "MIC", "setting": "strain KPM2696, ΔacrB", "result": 16, "unit": "µg/mL"},
      {"measurement": "percentage of strains with xeruborbactam MIC values ≥32 µg/ml", "setting": "OmpK35 full-length (n=118)", "result": 31.4, "unit": "%"},
      {"measurement": "percentage of strains with xeruborbactam MIC values ≥32 µg/ml", "setting": "OmpK35 full-length, OmpK36 GD (n=11)", "result": 82, "unit": "%"},
      {"measurement": "percentage of strains with xeruborbactam MIC values ≥32 µg/ml", "setting": "OmpK35 full-length, OmpK36 full length (n=82)", "result": 6.1, "unit": "%"},
      {"measurement": "percentage of strains with xeruborbactam MIC values ≥32 µg/ml", "setting": "OmpK35 full-length, OmpK36 non-functional (n=25)", "result": 92, "unit": "%"},
      {"measurement": "percentage of strains with xeruborbactam MIC values ≥32 µg/ml", "setting": "OmpK35 non-functional (n=318)", "result": 49, "unit": "%"},
      {"measurement": "percentage of strains with xeruborbactam MIC values ≥32 µg/ml", "setting": "OmpK35 non-functional, OmpK36 GD (n=149)", "result": 74.5, "unit": "%"},
      {"measurement": "percentage of strains with xeruborbactam MIC values ≥32 µg/ml", "setting": "OmpK35 non-functional, OmpK36 full length (n=130)", "result": 3.4, "unit": "%"},
      {"measurement": "percentage of strains with xeruborbactam MIC values ≥32 µg/ml", "setting": "OmpK35 non-functional, OmpK36 non-functional (n=39)", "result": 95, "unit": "%"},
      {"measurement": "percentage of strains with xeruborbactam MIC values ≥32 µg/ml", "setting": "OmpK36 GD (n=160)", "result": 75, "unit": "%"},
      {"measurement": "percentage of strains with xeruborbactam MIC values ≥32 µg/ml", "setting": "OmpK36 non-functional (n=65)", "result": "92.3% and 92%"},
      {"measurement": "fold MIC increase", "setting": "inactivation of ompK36 alone or in combination with ompK35", "result": "2 fold and 2- to 4 fold"},
      {"measurement": "fold MIC increase", "setting": "strain KPM1171 vs wild type", "result": 4, "unit": "fold"}
    ]}
  ]
}
